According to publication PMC5218480 (PLoS ONE, 2017):

System: MV-4-11 cells
Assay: Gene expression microarray analysis (Affymetrix PrimeView) and GSEA
Assay type: cell-based, human
Design: RFU PODN (11730768_x_at) / Fold change /veh PODN (11730768_x_at) / RFU LINC00158 (11744669_a_at) / Fold change /veh LINC00158 (11744669_a_at) / RFU DUSP10 (11751237_a_at) / Fold change /veh DUSP10 (11751237_a_at) / RFU ID3 (11757404_x_at) / Fold change /veh ID3 (11757404_x_at) / RFU PLEKHG5 (11737974_s_at) / Fold change /veh PLEKHG5 (11737974_s_at) / RFU LRRC4B (11730491_at) / Fold change /veh LRRC4B (11730491_at) / RFU GIMAP4 (11747438_a_at) / Fold change /veh GIMAP4 (11747438_a_at) / RFU KRT8 (11758183_x_at) / Fold change /veh KRT8 (11758183_x_at) / RFU CNN1 (11734310_a_at) / Fold change /veh CNN1 (11734310_a_at) / RFU VPS37D (11726825_at) / Fold change /veh VPS37D (11726825_at) / RFU C10orf10 (11716522_x_at) / Fold change /veh C10orf10 (11716522_x_at) / RFU KIR2DL2 /// KIR2DL4 /// KIR2DL5A /// KIR2DL5B /// KIR2DS1 /// KIR2DS2 /// KIR2DS3 /// KIR2DS4 /// KIR3DL3 /// KIR3DL3 /// KIR3DS1 (11738374_at) / Fold change /veh KIR2DL2 /// KIR2DL4 /// KIR2DL5A /// KIR2DL5B /// KIR2DS1 /// KIR2DS2 /// KIR2DS3 /// KIR2DS4 /// KIR3DL3 /// KIR3DL3 /// KIR3DS1 (11738374_at) / RFU C1QL1 (11718748_at) / Fold change /veh C1QL1 (11718748_at) / RFU TMPRSS4 (11747572_a_at) / Fold change /veh TMPRSS4 (11747572_a_at) / RFU HAMP (11756126_x_at) / Fold change /veh HAMP (11756126_x_at) / RFU RNFT2 (11725882_a_at) / Fold change /veh RNFT2 (11725882_a_at) / RFU NR4A2 (11747474_a_at) / Fold change /veh NR4A2 (11747474_a_at) / RFU ABCC12 (11746883_a_at) / Fold change /veh ABCC12 (11746883_a_at) / RFU TMEM136 (11760407_x_at) / Fold change /veh TMEM136 (11760407_x_at) / RFU CLDN22 /// WWC2 (11732394_at) / Fold change /veh CLDN22 /// WWC2 (11732394_at) / RFU HLA-DPB1 (11760878_x_at) / Fold change /veh HLA-DPB1 (11760878_x_at) / RFU SPINT1 (11716480_a_at) / Fold change /veh SPINT1 (11716480_a_at) / RFU GAP43 (11754022_s_at) / Fold change /veh GAP43 (11754022_s_at) / RFU A4GNT (11735810_at) / Fold change /veh A4GNT (11735810_at) / RFU PRB3 (11715151_x_at) / Fold change /veh PRB3 (11715151_x_at) / RFU TUBB4B (11761932_at) / Fold change /veh TUBB4B (11761932_at) / RFU CAPN14 (11732068_a_at) / Fold change /veh CAPN14 (11732068_a_at) / RFU TMCC2 (11721928_a_at) / Fold change /veh TMCC2 (11721928_a_at) / RFU IRGQ (11745062_a_at) / Fold change /veh IRGQ (11745062_a_at) / RFU FAM174B (11720279_a_at) / Fold change /veh FAM174B (11720279_a_at) / RFU TMPRSS4 (11748680_a_at) / Fold change /veh TMPRSS4 (11748680_a_at) / RFU FAM212B (11763350_a_at) / Fold change /veh FAM212B (11763350_a_at) / RFU PLEKHG5 (11743358_a_at) / Fold change /veh PLEKHG5 (11743358_a_at) / RFU ZSCAN30 (11745921_a_at) / Fold change /veh ZSCAN30 (11745921_a_at) / RFU CMKLR1 (11741424_a_at) / Fold change /veh CMKLR1 (11741424_a_at) / RFU LOC101060620 /// MAPK8IP1 (11723275_at) / Fold change /veh LOC101060620 /// MAPK8IP1 (11723275_at) / RFU SPTSSB (11747773_x_at) / Fold change /veh SPTSSB (11747773_x_at) / RFU PRSS12 (11739890_at) / Fold change /veh PRSS12 (11739890_at) / RFU BIN1 (11741810_x_at) / Fold change /veh BIN1 (11741810_x_at) / RFU WNT11 (11732464_a_at) / Fold change /veh WNT11 (11732464_a_at) / RFU C10orf10 (11716521_a_at) / Fold change /veh C10orf10 (11716521_a_at) / RFU C5orf56 (11738089_at) / Fold change /veh C5orf56 (11738089_at) / RFU CYB561 (11721691_x_at) / Fold change /veh CYB561 (11721691_x_at) / RFU ANKRD19P (11752326_a_at) / Fold change /veh ANKRD19P (11752326_a_at) / RFU OR2T12 /// OR2T33 /// OR2T8 (11738714_s_at) / Fold change /veh OR2T12 /// OR2T33 /// OR2T8 (11738714_s_at) / RFU VCAN (11748164_a_at) / Fold change /veh VCAN (11748164_a_at) / RFU JSRP1 (11732532_at) / Fold change /veh JSRP1 (11732532_at) / RFU KRTAP10-11 (11738290_x_at) / Fold change /veh KRTAP10-11 (11738290_x_at) / RFU MYO3A (11730013_a_at) / Fold change /veh MYO3A (11730013_a_at) / RFU EBF3 (11725865_a_at) / Fold change /veh EBF3 (11725865_a_at) / RFU CAMK2N1 (11719241_x_at) / Fold change /veh CAMK2N1 (11719241_x_at) / RFU C5orf56 (11738088_a_at) / Fold change /veh C5orf56 (11738088_a_at) / RFU OLFML3 (11715873_a_at) / Fold change /veh OLFML3 (11715873_a_at) / RFU LOC100653217 /// NTM (11731650_a_at) / Fold change /veh LOC100653217 /// NTM (11731650_a_at) / RFU MAPK11 (11762145_a_at) / Fold change /veh MAPK11 (11762145_a_at) / RFU FIZ1 (11724087_x_at) / Fold change /veh FIZ1 (11724087_x_at) / RFU OASL (11726364_x_at) / Fold change /veh OASL (11726364_x_at) / RFU SOX15 (11748057_x_at) / Fold change /veh SOX15 (11748057_x_at) / RFU CD79A (11719716_a_at) / Fold change /veh CD79A (11719716_a_at) / RFU HIST1H1D (11736915_at) / Fold change /veh HIST1H1D (11736915_at) / RFU CASKIN2 (11723855_a_at) / Fold change /veh CASKIN2 (11723855_a_at) / RFU LOC730098 (11760151_x_at) / Fold change /veh LOC730098 (11760151_x_at) / RFU OR4N2 (11742367_at) / Fold change /veh OR4N2 (11742367_at) / RFU PRRT2 (11749266_a_at) / Fold change /veh PRRT2 (11749266_a_at) / RFU SNX32 (11753110_a_at) / Fold change /veh SNX32 (11753110_a_at) / RFU CDHR5 (11726645_a_at) / Fold change /veh CDHR5 (11726645_a_at) / RFU RCAN1 (11760418_a_at) / Fold change /veh RCAN1 (11760418_a_at) / RFU FAM167A (11723789_a_at) / Fold change /veh FAM167A (11723789_a_at) / RFU FAM26E (11764081_at) / Fold change /veh FAM26E (11764081_at) / RFU ISYNA1 (11749810_s_at) / Fold change /veh ISYNA1 (11749810_s_at) / RFU ACY1 (11761880_at) / Fold change /veh ACY1 (11761880_at) / RFU 11764098_at / Fold change /veh 11764098_at / RFU SAMD14 (11745864_x_at) / Fold change /veh SAMD14 (11745864_x_at) / RFU NPB (11741838_a_at) / Fold change /veh NPB (11741838_a_at) / RFU TMPRSS6 (11731388_a_at) / Fold change /veh TMPRSS6 (11731388_a_at) / RFU KRTAP10-2 (11738614_at) / Fold change /veh KRTAP10-2 (11738614_at) / RFU ARHGAP8 /// PRR5-ARHGAP8 (11727945_x_at) / Fold change /veh ARHGAP8 /// PRR5-ARHGAP8 (11727945_x_at) / RFU KRTAP5-7 /// NADSYN1 (11734609_at) / Fold change /veh KRTAP5-7 /// NADSYN1 (11734609_at) / RFU RASL12 (11751679_a_at) / Fold change /veh RASL12 (11751679_a_at) / RFU CDKN2B (11736163_a_at) / Fold change /veh CDKN2B (11736163_a_at) / RFU PRF1 (11729649_at) / Fold change /veh PRF1 (11729649_at) / RFU, ZNF638 /// ZNF638-IT1 / Fold change vs veh, ZNF638 /// ZNF638-IT1 / RFU, PANK3 / Fold change vs veh, PANK3 / RFU, SH3YL1 / Fold change vs veh, SH3YL1 / RFU, ZEB2 / Fold change vs veh, ZEB2 / RFU, NRIP1 / Fold change vs veh, NRIP1 / RFU, PTTG1IP / Fold change vs veh, PTTG1IP / RFU, CAPN2 / Fold change vs veh, CAPN2 / RFU, MED14 / Fold change vs veh, MED14 / RFU, SNORA58 / Fold change vs veh, SNORA58 / RFU, C1orf63 / Fold change vs veh, C1orf63 / RFU, LRRFIP1 / Fold change vs veh, LRRFIP1 / RFU, NDUFAF7 / Fold change vs veh, NDUFAF7 / RFU, SLC12A2 / Fold change vs veh, SLC12A2 / RFU, IBTK / Fold change vs veh, IBTK / RFU, ESF1 / Fold change vs veh, ESF1 / Fold change vs veh, TMEM50B / RFU, TAOK1 / Fold change vs veh, TAOK1 / RFU, ACBD3 / Fold change vs veh, ACBD3 / RFU, TMA16 / Fold change vs veh, TMA16 / RFU, RWDD3 / Fold change vs veh, RWDD3 / RFU, BCAT1 / Fold change vs veh, BCAT1 / RFU, EDEM3 / Fold change vs veh, EDEM3 / RFU, TMEM33 / Fold change vs veh, TMEM33 / RFU, WDR75 / Fold change vs veh, WDR75 / RFU, AHCTF1 / Fold change vs veh, AHCTF1 / RFU, TFRC / Fold change vs veh, TFRC / RFU, ZDHHC17 / Fold change vs veh, ZDHHC17 / RFU, NOM1 / Fold change vs veh, NOM1 / RFU, ARL8B / Fold change vs veh, ARL8B / RFU, ZBTB11 / Fold change vs veh, ZBTB11 / RFU, TAMM41 / Fold change vs veh, TAMM41 / RFU, KIAA1704 /// LOC100996395 / Fold change vs veh, KIAA1704 /// LOC100996395 / RFU, ING1 / Fold change vs veh, ING1 / RFU, TRMT61B / Fold change vs veh, TRMT61B / RFU, FUBP3 / Fold change vs veh, FUBP3 / RFU, TP53 / Fold change vs veh, TP53 / RFU, TNKS2 / Fold change vs veh, TNKS2 / RFU, ZFP14 / Fold change vs veh, ZFP14 / RFU, ACTR2 / Fold change vs veh, ACTR2 / RFU, PPP3R1 / Fold change vs veh, PPP3R1 / RFU, PIK3R1 / Fold change vs veh, PIK3R1 / RFU, HNRNPA1 / Fold change vs veh, HNRNPA1 / RFU, RNF170 / Fold change vs veh, RNF170 / RFU, ZNF28 / Fold change vs veh, ZNF28 / RFU, RNGTT / Fold change vs veh, RNGTT / RFU, OGT / Fold change vs veh, OGT / RFU, BRD1 / Fold change vs veh, BRD1 / RFU, MARS / Fold change vs veh, MARS / RFU, ZNF655 / Fold change vs veh, ZNF655 / RFU, FAHD1 / Fold change vs veh, FAHD1 / RFU, BDP1 / Fold change vs veh, BDP1 / RFU, LRRCC1 / Fold change vs veh, LRRCC1 / RFU, ARID1A / Fold change vs veh, ARID1A / RFU, ZNF146 / Fold change vs veh, ZNF146 / RFU, ZNF330 / Fold change vs veh, ZNF330 / RFU, GPN3 / Fold change vs veh, GPN3 / RFU, C9orf123 / Fold change vs veh, C9orf123 / RFU, N4BP2L2 / Fold change vs veh, N4BP2L2 / RFU, ARFIP1 / Fold change vs veh, ARFIP1 / RFU, FAM179B / Fold change vs veh, FAM179B / RFU, BCL10 / Fold change vs veh, BCL10 / RFU, UHRF1BP1L / Fold change vs veh, UHRF1BP1L / RFU, BET1 / Fold change vs veh, BET1 / RFU, CNOT2 / Fold change vs veh, CNOT2 / RFU, ZNF268 / Fold change vs veh, ZNF268 / Fold change vs veh, ZNF507 / RFU, DGCR2 / Fold change vs veh, DGCR2 / RFU, WDSUB1 / Fold change vs veh, WDSUB1 / Fold change vs veh, HSP90B1 /// MIR3652 / RFU, ADSS / Fold change vs veh, ADSS / RFU, GK / Fold change vs veh, GK / RFU, ZNF148 / Fold change vs veh, ZNF148 / RFU, TAF9 / Fold change vs veh, TAF9 / RFU, SLC1A5 / Fold change vs veh, SLC1A5 / RFU, SLMO2 / Fold change vs veh, SLMO2 / RFU, ABCC4 / Fold change vs veh, ABCC4 / RFU, LOC101060439 /// RAP1B / Fold change vs veh, LOC101060439 /// RAP1B / RFU, RFX7 / Fold change vs veh, RFX7 / RFU, GTPBP10 / Fold change vs veh, GTPBP10 / RFU, CNEP1R1 / Fold change vs veh, CNEP1R1 / RFU, BIVM-ERCC5 /// ERCC5 / Fold change vs veh, BIVM-ERCC5 /// ERCC5 / RFU, ILF3 / Fold change vs veh, ILF3 / RFU 11762660_at / Fold change /veh 11762660_at / RFU VCAN (11757783_s_at) / Fold change /veh VCAN (11757783_s_at) / RFU DDX43 (11728927_at) / Fold change /veh DDX43 (11728927_at) / RFU KRT8 (11758188_x_at) / Fold change /veh KRT8 (11758188_x_at) / RFU NKD1 (11759106_at) / Fold change /veh NKD1 (11759106_at) / RFU SRD5A1 (11742802_a_at) / Fold change /veh SRD5A1 (11742802_a_at) / RFU TPSAB1 /// TPSB2 (11721975_s_at) / Fold change /veh TPSAB1 /// TPSB2 (11721975_s_at) / RFU GSTM3 (11746129_a_at) / Fold change /veh GSTM3 (11746129_a_at) / RFU IL23R (11737362_x_at) / Fold change /veh IL23R (11737362_x_at) / RFU TMEM51 (11727254_a_at) / Fold change /veh TMEM51 (11727254_a_at) / RFU PIWIL2 (11732686_x_at) / Fold change /veh PIWIL2 (11732686_x_at) / RFU ORM1 (11744905_x_at) / Fold change /veh ORM1 (11744905_x_at) / RFU CCDC152 (11743942_at) / Fold change /veh CCDC152 (11743942_at) / RFU ECM1 (11717891_a_at) / Fold change /veh ECM1 (11717891_a_at) / RFU IL23R (11748794_a_at) / Fold change /veh IL23R (11748794_a_at) / RFU TNFAIP8L3 (11732012_x_at) / Fold change /veh TNFAIP8L3 (11732012_x_at) / RFU MBOAT4 (11741988_at) / Fold change /veh MBOAT4 (11741988_at) / RFU 11764193_at / Fold change /veh 11764193_at / RFU TMEM53 (11763286_at) / Fold change /veh TMEM53 (11763286_at) / RFU MAGEB2 (11727129_at) / Fold change /veh MAGEB2 (11727129_at) / RFU TMEM200A (11744735_a_at) / Fold change /veh TMEM200A (11744735_a_at) / RFU CCDC152 (11751479_a_at) / Fold change /veh CCDC152 (11751479_a_at) / RFU FAM211A (11726209_a_at) / Fold change /veh FAM211A (11726209_a_at) / RFU RGS16 (11746705_a_at) / Fold change /veh RGS16 (11746705_a_at) / RFU VCAN (11755009_s_at) / Fold change /veh VCAN (11755009_s_at) / RFU RHOB (11743442_s_at) / Fold change /veh RHOB (11743442_s_at) / RFU RGS16 (11720943_a_at) / Fold change /veh RGS16 (11720943_a_at) / RFU RGS16 (11720944_at) / Fold change /veh RGS16 (11720944_at) / RFU, VPS4B / Fold change vs veh, VPS4B / RFU, CREB1 / Fold change vs veh, CREB1 / RFU, DNAJC13 / Fold change vs veh, DNAJC13 / RFU, GNAQ / Fold change vs veh, GNAQ / RFU, CDK5R1 / Fold change vs veh, CDK5R1 / RFU, ZRANB3 / Fold change vs veh, ZRANB3 / RFU, CUL4A / Fold change vs veh, CUL4A / RFU, CCNY / Fold change vs veh, CCNY / RFU, UFL1 / Fold change vs veh, UFL1 / RFU, COG3 / Fold change vs veh, COG3 / RFU, DIAPH2 / Fold change vs veh, DIAPH2 / RFU, SKA2 / Fold change vs veh, SKA2 / RFU, AFF3 / Fold change vs veh, AFF3 / RFU, LMF1 / Fold change vs veh, LMF1 / RFU, IPO11 / Fold change vs veh, IPO11 / RFU, DFFB / Fold change vs veh, DFFB / RFU, FOXP1 / Fold change vs veh, FOXP1 / RFU, CARD8 / Fold change vs veh, CARD8 / RFU, STRN3 / Fold change vs veh, STRN3 / RFU, ADK / Fold change vs veh, ADK / RFU, RASSF2 / Fold change vs veh, RASSF2 / RFU, WIPF1 / Fold change vs veh, WIPF1 / RFU, LARP1B / Fold change vs veh, LARP1B / RFU, RASA1 / Fold change vs veh, RASA1 / RFU, RB1 / Fold change vs veh, RB1 / RFU, PPFIA1 / Fold change vs veh, PPFIA1 / RFU, MAT2A / Fold change vs veh, MAT2A / RFU, CCT5 / Fold change vs veh, CCT5 / RFU, WDR92 / Fold change vs veh, WDR92 / RFU, CUX1 / Fold change vs veh, CUX1 / RFU, TTC7A / Fold change vs veh, TTC7A / RFU, TMEM135 / Fold change vs veh, TMEM135 / RFU, DEPTOR / Fold change vs veh, DEPTOR / RFU, CPM / Fold change vs veh, CPM / RFU, DNAJB6 / Fold change vs veh, DNAJB6 / RFU, CACNA2D3 / Fold change vs veh, CACNA2D3 / RFU, DTX4 / Fold change vs veh, DTX4 / RFU, TFCP2 / Fold change vs veh, TFCP2 / RFU, GMCL1 /// GMCL1P1 / Fold change vs veh, GMCL1 /// GMCL1P1 / RFU, AEBP2 / Fold change vs veh, AEBP2 / RFU, SNHG1 /// SNORD22 /// SNORD25 /// SNORD26 /// SNORD27 /// SNORD28 /// SNORD29 /// SNORD31 / Fold change vs veh, SNHG1 /// SNORD22 /// SNORD25 /// SNORD26 /// SNORD27 /// SNORD28 /// SNORD29 /// SNORD31 / Fold change (Aza/veh), C12orf56 (ProbeSet 11735607_a_at) / Fold change (ACY-1035/veh), C12orf56 (ProbeSet 11735607_a_at) / Fold change (Aza/veh), FGFR1OP (ProbeSet 11751329_s_at) / Fold change (ACY-1035/veh), FGFR1OP (ProbeSet 11751329_s_at) / Fold change (Aza/veh), VPS36 (ProbeSet 11739960_a_at) / Fold change (ACY-1035/veh), VPS36 (ProbeSet 11739960_a_at) / RFU SYPL1 (11715823_x_at) / Fold change /veh SYPL1 (11715823_x_at) / RFU IGFBP7 (11715501_s_at) / Fold change /veh IGFBP7 (11715501_s_at) / RFU REEP3 (11722064_at) / Fold change /veh REEP3 (11722064_at) / RFU IGLL1 (11728026_x_at) / Fold change /veh IGLL1 (11728026_x_at): dose or concentration left out as unconfirmed
Details: ProbeSet 11755436_x_at; LIST B

Nc1ccc(-c2cccs2)cc1NC(=O)c1ccc2c(c1)cc(C1CC1)n2CCN1CCOCC1 [ACY-1035] was tested, and the “Fold change vs veh, ARID1A” value was 0.98.
